The results in this text go back to the NIST ThermoML archive (doi:10.1016/j.jct.2018.12.016).

The conditions of this data set: 298.15 K, Liquid; for mass density: 101.33 kPa, Pycnometric method; for vapor or sublimation pressure: Manometric method.

SMILES strings stand for the structures. Numbers after ± are expanded uncertainties.

For `C[S+](C)[O-]` [dimethyl sulfoxide], the mass density was 1096 ± 3 kg/m3 and the “vapor or sublimation pressure” value was 0.08 ± 0.078 kPa.

As for `CC#N` [acetonitrile], the mass density is recorded as 776 ± 2 kg/m3 and the “vapor or sublimation pressure” value is reported as 11.81 ± 0.16 kPa.

As for `[Hg]` [mercury], the mass density was 13530 ± 30 kg/m3.

With `COC(=O)OC` [dimethyl carbonate], the mass density was 1063 ± 2 kg/m3 and the “vapor or sublimation pressure” value is 7.256 ± 0.12 kPa.

For the molecule `CCCCOC(=O)c1ccccc1C(=O)OCCCC` [dibutyl phthalate], the mass density is reported as 1042 ± 2 kg/m3.
